Measured values: ChEMBL document CHEMBL6087443, “3-Halo-3-nitro-aza/thioflavanones: DNMT inhibitors with a two-site binding mode in the hDNMT3A catalytic pocket” (Bioorg Med Chem, 2025)
Calls of active or inactive are those of the source. No cut-off for these calls is given here.

What was measured:
[1] = biological target: DNA (cytosine-5)-methyltransferase 3A (Homo sapiens) (UniProt Q9Y6K1); assay: Inhibition of hDNMT3A-c using SAM and oligonucleotide with CpG site at 32 uM incubated for 2 hrs by fluorescence-based assay relative to control
[2] = biological target: DNA (cytosine-5)-methyltransferase 3A (Homo sapiens) (UniProt Q9Y6K1); assay: Inhibition of hDNMT3A-c using SAM and oligonucleotide with CpG site at 10 uM incubated for 2 hrs by fluorescence-based assay relative to control
[3] = Stability of compound in DNMT methylation buffer by HPLC analysis; assay type: physicochemical
[4] = Stability of the compound at pH 5.3; assay type: physicochemical; conditions: buffer
[5] = Stability of the compound in HEPES buffer incubated for 2 hrs by measuring inhibition of DNMT (unknown origin) at 32 uM by HPLC analysis; assay type: physicochemical
[6] = Stability of the compound in HEPES buffer incubated for 2 hrs by measuring inhibition of DNMT (unknown origin) at 10 uM by HPLC analysis; assay type: physicochemical

Chain of DNA (cytosine-5)-methyltransferase 3A (Homo sapiens) (Q9Y6K1 whole entry, looked up): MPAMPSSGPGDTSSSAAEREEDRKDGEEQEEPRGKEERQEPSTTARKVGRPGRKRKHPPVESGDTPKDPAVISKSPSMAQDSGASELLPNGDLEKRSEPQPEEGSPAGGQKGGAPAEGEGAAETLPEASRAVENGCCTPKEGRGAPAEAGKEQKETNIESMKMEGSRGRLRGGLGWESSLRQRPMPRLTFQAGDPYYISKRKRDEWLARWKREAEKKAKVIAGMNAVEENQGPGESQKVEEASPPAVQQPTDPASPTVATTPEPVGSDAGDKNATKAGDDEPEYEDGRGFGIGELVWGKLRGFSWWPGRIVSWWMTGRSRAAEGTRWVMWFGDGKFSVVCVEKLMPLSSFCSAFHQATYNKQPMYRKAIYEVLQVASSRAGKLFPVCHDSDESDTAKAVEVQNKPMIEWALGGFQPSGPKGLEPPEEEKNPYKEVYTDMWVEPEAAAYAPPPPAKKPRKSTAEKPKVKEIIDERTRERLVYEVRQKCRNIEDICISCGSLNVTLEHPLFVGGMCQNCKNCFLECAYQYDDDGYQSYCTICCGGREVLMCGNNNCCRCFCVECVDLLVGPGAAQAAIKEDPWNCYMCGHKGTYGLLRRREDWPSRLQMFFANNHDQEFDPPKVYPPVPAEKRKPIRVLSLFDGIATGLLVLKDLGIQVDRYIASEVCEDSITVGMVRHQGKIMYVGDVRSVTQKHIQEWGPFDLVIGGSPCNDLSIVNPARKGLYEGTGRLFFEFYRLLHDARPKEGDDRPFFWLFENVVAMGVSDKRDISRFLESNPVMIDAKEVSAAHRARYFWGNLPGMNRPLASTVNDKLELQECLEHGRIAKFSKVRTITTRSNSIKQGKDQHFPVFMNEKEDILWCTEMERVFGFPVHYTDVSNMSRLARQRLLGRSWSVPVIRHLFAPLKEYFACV

SMILES | inhibition [1] | inhibition [2] | half-life [3] | Stability [4] | Stability [5] | Stability [6]
O=C1c2ccccc2NC(c2ccccc2)C1[N+](=O)[O-] (stereo unspecified) | inactive | inactive | – | – | – | –
O=C1c2ccccc2S[C@@H](c2cccc(C(F)(F)F)c2)[C@]1(Br)[N+](=O)[O-] (relative stereo) | 78% | 34% | 192 min | – | – | –
O=C1c2ccccc2S[C@@H](c2ccccc2)[C@@]1(Br)[N+](=O)[O-] (relative stereo) | 68% | 42% | 12 min | – | – | –
O=C1c2ccccc2S[C@@H](c2ccccc2F)[C@@]1(Br)[N+](=O)[O-] (relative stereo) | 67% | 42% | 66 min | – | – | –
O=C1c2ccccc2S[C@@H](c2ccccc2)[C@]1(Br)[N+](=O)[O-] (relative stereo) | 86% | 51% | 72 min | – | – | –
COc1cccc(C2Nc3ccccc3C(=O)C2[N+](=O)[O-])c1 (stereo unspecified) | inactive | inactive | – | – | – | –
O=C1c2ccccc2S[C@@H](c2ccccc2F)[C@]1(Br)[N+](=O)[O-] (relative stereo) | 67% | 32% | 48 min | – | – | –
O=C1c2ccccc2O[C@@H](c2ccccc2)[C@]1(Br)[N+](=O)[O-] (relative stereo) | 92% | 69% | – | – | – | –
O=C1c2ccccc2S[C@H](c2cccc([N+](=O)[O-])c2)[C@@]1(Br)[N+](=O)[O-] (relative stereo) | 59% | 27% | 54 min | – | – | –
O=C1c2ccccc2O[C@@H](c2ccccc2[N+](=O)[O-])[C@]1(Cl)[N+](=O)[O-] (relative stereo) | 84% | 69% | – | – | – | –
O=C1c2ccccc2NC(c2ccccc2)C1(Br)[N+](=O)[O-] (racemic) | 89% | 55% | 18 min | – | – | –
O=C1c2ccccc2S[C@@H](c2cccc(C(F)(F)F)c2)[C@@]1(Br)[N+](=O)[O-] (relative stereo) | 63% | 35% | 12 min | – | – | –
COc1cccc(C2Nc3ccccc3C(=O)C2(Br)[N+](=O)[O-])c1 (racemic) | 100% | 59% | 42 min | Stable | Unstable | Unstable
COc1cccc(C2Nc3ccccc3C(=O)C2(Cl)[N+](=O)[O-])c1 (racemic) | 56% | 42% | 138 min | – | – | –
